Among the test systems are T-47D breast; NCI-H226 lung; RPMI-8226 leukemia; OVCAR-4 ovarian; MOLT-4 leukemia; TK-10 renal; SW-620 colon; MALME-3M melanoma.
What all share (assay): NCI anticancer screen, dose series, 48 h

Structures are written as SMILES. Where “and” joins values, the source holds several entries; their conditions need not be identical. Equal entries are not always repeated.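 1) Cells in 96-well plates. 2) Compound, 48 h, 5 concentrations. 3) Linear interpolation between surrounding doses. 4) Unreached endpoint = highest concentration. GI50 is the concentration that inhibits growth by half. The concentration for full growth arrest is given as TGI.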

Regarding `COc1ccc(-c2cc3cccc(OC)c3c(=O)o2)cc1OC`, the GI50 with T-47D breast is 28.3 µM; with NCI-H226 lung it was 2.35 µM; in the assay with RPMI-8226 leukemia it was 29.7 µM; in the assay on OVCAR-4 ovarian, above 100 µM; in the assay with MOLT-4 leukemia it was 47900 nM; in the assay with TK-10 renal, above 100000 nM. Also, the GI50 in the assay with SW-620 colon is 40 µM; with MALME-3M melanoma it was above 100000 nM. The TGI was above 100 µM in the assay on T-47D breast; 86.5 µM in the assay on NCI-H226 lung; above 100 µM in the assay with RPMI-8226 leukemia; above 100 µM in the assay with OVCAR-4 ovarian; above 100 µM in the assay with MOLT-4 leukemia; above 100 µM in the assay with TK-10 renal. In addition, the TGI in the assay with SW-620 colon and in the assay on MALME-3M melanoma was above 100 µM throughout.
For the molecule `CS(=O)(=O)c1nccc(-c2c(-c3cccc(OCc4ccc(F)cc4)c3)nc3sccn23)n1`, the GI50 is 9.52 µM in the assay with T-47D breast; 21.6 µM in the assay with NCI-H226 lung; 5.16 µM in the assay on RPMI-8226 leukemia; 11.4 µM in the assay with OVCAR-4 ovarian; 2640 nM with MOLT-4 leukemia; above 94200 nM in the assay with TK-10 renal. The values for the GI50 with SW-620 colon and in the assay on MALME-3M melanoma were 5.32 µM and 67300 nM, respectively. The TGI was above 100 µM with T-47D breast; above 100 µM in the assay on NCI-H226 lung; above 51 µM with RPMI-8226 leukemia; above 100 µM with OVCAR-4 ovarian; above 100 µM in the assay on MOLT-4 leukemia; above 100 µM with TK-10 renal. For the same molecule, the TGI with SW-620 colon and with MALME-3M melanoma was above 100 µM in each case.
As for `CCC(=O)Sc1ccccc1C(=O)Nc1ccc(Cl)cc1`, the GI50 in the assay on T-47D breast is 8.96 µM; with NCI-H226 lung it was 10.4 µM; in the assay on RPMI-8226 leukemia, 4.32 µM; in the assay with OVCAR-4 ovarian, 13.1 µM; in the assay with MOLT-4 leukemia it was 4670 nM; in the assay with TK-10 renal it was 22900 nM. Also, the GI50 is 3.63 µM with SW-620 colon and 8760 nM in the assay with MALME-3M melanoma. Besides, the TGI in the assay with T-47D breast is 38.6 µM; in the assay with NCI-H226 lung, 54.8 µM; in the assay with RPMI-8226 leukemia it was 29.3 µM; in the assay with OVCAR-4 ovarian, above 100 µM; in the assay with MOLT-4 leukemia, 92.6 µM; with TK-10 renal, 76.9 µM. For the same molecule, the TGI with SW-620 colon turned out to be 25.8 µM; in the assay with MALME-3M melanoma, 51.2 µM.
On to `Cc1nc2sc(C(=O)Nc3cccc4ccccc34)c(N)c2cc1C(C)O` (centres undefined), for which the GI50 in the assay with T-47D breast is 0.183 µM; with NCI-H226 lung, 0.28 µM; with RPMI-8226 leukemia it was 0.223 µM; with OVCAR-4 ovarian, 1.51 µM; with MOLT-4 leukemia, 227 nM; with TK-10 renal, 32200 nM. The GI50 with SW-620 colon is 0.175 µM; in the assay on MALME-3M melanoma, 265 nM. In addition, the TGI in the assay on T-47D breast, with NCI-H226 lung, with RPMI-8226 leukemia, in the assay on OVCAR-4 ovarian, with MOLT-4 leukemia and in the assay with TK-10 renal was above 50 µM throughout. The TGI in the assay on SW-620 colon and in the assay on MALME-3M melanoma was above 50 µM throughout.
In the case of `Cn1cc(-c2cc3c(Nc4ccc(CC(=O)Nc5cc(C(C)(C)C)on5)cc4)ncnc3[nH]2)cn1`, the GI50 in the assay on T-47D breast was 0.315 µM and 0.289 µM; in the assay with NCI-H226 lung, 0.899 µM and 0.54 µM; in the assay on RPMI-8226 leukemia, 2.03 µM and 1.07 µM; in the assay with OVCAR-4 ovarian, 0.592 µM and 0.547 µM; in the assay on MOLT-4 leukemia it was 401 nM and 324 nM; with TK-10 renal, 2740 nM and 2440 nM. The GI50 in the assay with SW-620 colon is 0.871 µM and 0.654 µM; in the assay on MALME-3M melanoma, 615 nM and 354 nM. For the same molecule, the TGI with T-47D breast was 6.12 µM and 2.19 µM; with NCI-H226 lung it was 4.18 µM and 4.1 µM; in the assay with RPMI-8226 leukemia, 5.41 µM and 3.8 µM; in the assay on OVCAR-4 ovarian, 4 µM and 5.17 µM; in the assay on MOLT-4 leukemia it was 11.4 µM and 2.38 µM; with TK-10 renal, 8.91 µM and 7.4 µM. Moreover, the TGI in the assay on SW-620 colon was 2.75 µM and 5.73 µM; with MALME-3M melanoma, 2.36 µM and 1.75 µM.
For `O=C1c2ccn(CCCCN3CCOCC3)c2C(=O)c2c1c(O)c1ccccc1c2O`, the GI50 is 8.45 µM with T-47D breast; 5.32 µM in the assay on NCI-H226 lung; 3.53 µM with RPMI-8226 leukemia; 30.3 µM in the assay on OVCAR-4 ovarian; 1560 nM with TK-10 renal. The TGI in the assay on T-47D breast is 97.7 µM; in the assay on NCI-H226 lung it was 42.5 µM; with RPMI-8226 leukemia, above 100 µM; with OVCAR-4 ovarian, above 100 µM; with TK-10 renal, 7.7 µM.
On to `CCOC(=O)C1NCCc2c1[nH]c1ccccc21` (centres undefined), for which the TGI with T-47D breast, with RPMI-8226 leukemia, in the assay with OVCAR-4 ovarian, in the assay with MOLT-4 leukemia, with TK-10 renal and in the assay with SW-620 colon was above 10 µM throughout. Besides, in the assay with MALME-3M melanoma, the TGI is above 10 µM.
For the molecule `C[C@]12CC[C@H](O)CC1=CC[C@@H]1[C@@H]2CC[C@]2(C)C(=O)/C(=C/c3cccc(OCCCn4ccnc4)c3)C[C@@H]12`, the GI50 was 12.4 µM with T-47D breast; 21.4 µM in the assay with NCI-H226 lung; 10.1 µM in the assay on RPMI-8226 leukemia; 19.6 µM with OVCAR-4 ovarian; 27900 nM with TK-10 renal; 19.7 µM in the assay with SW-620 colon. Also, the GI50 with MALME-3M melanoma is 23900 nM. Also, the TGI with T-47D breast was 31.3 µM; in the assay with NCI-H226 lung, 50.2 µM; in the assay with RPMI-8226 leukemia it was 31.6 µM; in the assay on OVCAR-4 ovarian it was 64.6 µM; with TK-10 renal it was 72 µM; in the assay with SW-620 colon, 40.9 µM. Besides, the TGI with MALME-3M melanoma worked out at 59.1 µM.
`OCCN1CCN(CCCN2c3ccccc3Sc3ccc(C(F)(F)F)cc32)CC1`: the GI50 was 1.36 µM and 8.88 µM and 7.46 µM with T-47D breast; 5.3 µM and 12.7 µM and 12.3 µM with NCI-H226 lung; 1.54 µM in the assay with RPMI-8226 leukemia; 5.29 µM and 10.8 µM and 8.5 µM in the assay with OVCAR-4 ovarian; 2350 nM and 9230 nM and 2830 nM in the assay with MOLT-4 leukemia; 1480 nM and 8220 nM and 6590 nM with TK-10 renal. The GI50 in the assay with SW-620 colon is 1.93 µM and 11.7 µM and 4.22 µM. Further, the TGI in the assay with T-47D breast was 6.12 µM and 25.8 µM and 22.9 µM; with NCI-H226 lung, 11.8 µM and 27.6 µM and 25.7 µM; with RPMI-8226 leukemia, 4.69 µM; in the assay with OVCAR-4 ovarian, 11.2 µM and 23.1 µM and 20.9 µM; with MOLT-4 leukemia it was 8.44 µM and 27 µM and 8.49 µM; in the assay on TK-10 renal, 4.28 µM and 21.3 µM and 20.1 µM. The TGI in the assay on SW-620 colon was 8.01 µM and 25.4 µM and 16.2 µM.
For the molecule `CC1=CC[C@@H]2[C@@H](CC[C@@]2(C)O)C(C)(C)[C@H]1CC[C@@H]1[C@@]2(C)CCC(=O)C(C)(C)O[C@@H]2CC[C@]1(C)O`, the TGI in the assay with T-47D breast was above 100 µM; in the assay on NCI-H226 lung, 63.5 µM; in the assay on RPMI-8226 leukemia, 51.1 µM; with OVCAR-4 ovarian, above 100 µM; in the assay on MOLT-4 leukemia, 68.5 µM; in the assay with TK-10 renal, above 100 µM. This molecule also yielded a TGI in the assay with SW-620 colon above 100 µM.
For `COc1ccc(-c2cc3c4c(nc5ccccc5c4c2)CC(c2cc(OC)c(OC)c(OC)c2)O3)cc1` (centres undefined), the GI50 in the assay on T-47D breast was 2.34 µM; with NCI-H226 lung, 1.71 µM; in the assay on RPMI-8226 leukemia it was 3.66 µM; in the assay on MOLT-4 leukemia it was above 100000 nM; with TK-10 renal, 2370 nM; in the assay on SW-620 colon, 2.63 µM. Moreover, the GI50 with MALME-3M melanoma was 1320 nM. Moreover, the TGI was 7.53 µM with T-47D breast; 3.89 µM with NCI-H226 lung; above 100 µM in the assay on RPMI-8226 leukemia; above 100 µM in the assay on MOLT-4 leukemia; 5.28 µM in the assay on TK-10 renal; above 100 µM in the assay on SW-620 colon. The TGI with MALME-3M melanoma came out at 3.87 µM.
Turning to `COc1cc2c(cc1OC)C13CCN4CC5=CCOC(CC(=O)O)C(C5CC41)C3N2` (centres undefined), the TGI in the assay with NCI-H226 lung, in the assay on RPMI-8226 leukemia, with OVCAR-4 ovarian, in the assay on MOLT-4 leukemia, with TK-10 renal and in the assay with SW-620 colon was above 100 µM each time. The TGI with MALME-3M melanoma is above 100 µM.
For the molecule `CC1OCC2OC(C)OC(C3C4=C(CC(C)(C)CC4=O)OC4=C3C(=O)CC(C)(C)C4)C2O1` (centres undefined), the TGI in the assay with T-47D breast, in the assay on NCI-H226 lung, in the assay on RPMI-8226 leukemia, in the assay with MOLT-4 leukemia, in the assay with TK-10 renal and with SW-620 colon was above 100 µM throughout. In the assay on MALME-3M melanoma, this molecule had a TGI above 100 µM.
On to `COc1cc2c(-c3nc4cc(Cl)c(F)cc4s3)cc(=O)oc2c(C)c1OC`, for which the GI50 is 1.72 µM with NCI-H226 lung, 1.65 µM in the assay on OVCAR-4 ovarian, 1960 nM with TK-10 renal and 311 nM in the assay on MALME-3M melanoma. In addition, the TGI in the assay on NCI-H226 lung worked out at 3.99 µM; in the assay on OVCAR-4 ovarian it was 3.16 µM; with TK-10 renal, 3.47 µM; with MALME-3M melanoma it was 1.14 µM.
Regarding `COc1ccc2c(c1)Oc1nc(N)c(C#N)c(N)c1C2Sc1ccc(SC)cc1` (centres undefined), the GI50 in the assay with T-47D breast is 1.94 µM; with NCI-H226 lung, 1.92 µM; in the assay with RPMI-8226 leukemia, 2.86 µM; in the assay on OVCAR-4 ovarian, 1.64 µM; in the assay with MOLT-4 leukemia, 2830 nM; in the assay with TK-10 renal, 1770 nM. Besides, in the assay with MALME-3M melanoma, the GI50 is 1780 nM. The TGI was 4.91 µM with T-47D breast; 3.58 µM with NCI-H226 lung; 6.43 µM with RPMI-8226 leukemia; 3.07 µM with OVCAR-4 ovarian; 6.87 µM in the assay with MOLT-4 leukemia; 3.17 µM in the assay on TK-10 renal. This molecule yielded a TGI in the assay with MALME-3M melanoma of 3.35 µM.
With `Cc1ccc(S(=O)(=O)N(C)C)cc1[N+](=O)[O-]`, the GI50 is above 100 µM in the assay with T-47D breast; above 100 µM in the assay on NCI-H226 lung; above 100 µM in the assay on RPMI-8226 leukemia; above 100000 nM with TK-10 renal; above 100 µM in the assay with SW-620 colon; above 100000 nM with MALME-3M melanoma. Moreover, the TGI with T-47D breast, in the assay on NCI-H226 lung, in the assay with RPMI-8226 leukemia, with TK-10 renal, in the assay with SW-620 colon and with MALME-3M melanoma was above 100 µM each time.

Values taken from PubChem BioAssay (NCI).
